Assay results reported in US20050000824A1, “Phosphorus-borates with low melting points” (priority 2001, published 2005).

Tests used:
Type in all cases: physicochemical
[1] = Thermal decomposition observed with melting point determination; details: thermal stability
[2] = Determination of viscosity (Brookfield Cone and Plate Viscometer)
Procedure: Viscosity was measured using an LVDV-II Brookfield Cone and Plate Viscometer (1% accuracy, 0.2 repeatability). The sample cup of the viscometer was fitted with luer and purge fittings, so that a positive current of dry dinitrogen was maintained at all times during the measurements, thus avoiding absorption of atmospheric moisture. The sample cup was jacketed with a circulating water bath that was controlled by a circulator bath Grant LTD 6G (+0.1° C. accuracy).

[3] = Determination of solubility (qualitative, mixing ionic liquid with solvent)
Procedure: Solubility was determined only qualitatively by mixing approximately 0.5 ml of the ionic liquid with the same amount of organic solvent and shaking. All samples were checked a second time after several hours to ensure, that no slow phase separation had occured.

Compound | Viscosity ([2]; 15 ° C.) [cP] | Viscosity ([2]; 20 ° C.) [cP] | Viscosity ([2]; 25 ° C.) [cP] | Viscosity ([2]; 30 ° C.) [cP] | Viscosity ([2]; 35 ° C.) [cP] | Viscosity ([2]; 40 ° C.) [cP] | Viscosity ([2]; 45 ° C.) [cP] | Viscosity ([2]; 50 ° C.) [cP] | Viscosity ([2]; 55 ° C.) [cP] | Viscosity ([2]; 60 ° C.) [cP] | Viscosity ([2]; 65 ° C.) [cP] | Viscosity ([2]; 70 ° C.) [cP] | Viscosity ([2]; 75 ° C.) [cP] | Viscosity ([2]; 80 ° C.) [cP] | Viscosity ([2]; 85 ° C.) [cP] | Viscosity ([2]; 90 ° C.) [cP] | Viscosity ([2]; 95 ° C.) [cP] | Solubility ([3]; solvent acetonitrile) | Solubility ([3]; solvent hexane) | Solubility ([3]; solvent iso-propyl alcohol) | further results
CCCCCCCCCCCCCC[P+](CCCCCC)(CCCCCC)CCCCCC.c1ccc2c(c1)O[B-]1(O2)Oc2ccccc2O1 [[R4P] [BBB], [(C6)3P(C14)][BBB]] | 6184 | 3735 | 2439 | 1593 | 1087 | 739.8 | 538.1 | 386.7 | 288.3 | 217.2 | 168.2 | 126.3 | 100.2 | 81.0 | 65.2 | 50.2 | 40.91 | Y* | N** | Y* | decomposition (temperature) [1]: above 200 °C
CCCCCCCCCCCCCC[P+](CCCCCC)(CCCCCC)CCCCCC.c1ccc2c(c1)O[B-]1(Oc3ccccc3-2)Oc2ccccc2-c2ccccc2O1 [[R4P] [BBPB], [(C6)3P(C14)][BBPB]] | 33737 | 20660 | 12813 | 8245 | 5453 | 3675 | 2703 | 1953 | 1393 | 1022 | 759.0 | 550.7 | 333.9 | 209.2 | 173.0 | 177.8 |  | Y* |  | Y* | Viscosity ([2]; 5 ° C.): 95020 cP; Viscosity ([2]; 10 ° C.): 59233 cP
CCCCCCCCCCCCCC[P+](CCCCCC)(CCCCCC)CCCCCC.O=C1O[B-]2(OC(=O)c3ccccc3O2)Oc2ccccc21 [[R4P] [BSB], [(C6)3P(C14)][BSB]] | 2663 | 1730 | 1164 | 801.4 | 566.3 | 407.0 | 300.4 | 229.6 | 171.4 | 132.6 | 106.3 | 85.1 | 68.4 | 56.4 | 47.2 | 39.9 | 34.1 | Y* | N** |  | Viscosity ([2]; 5 ° C.): 7334 cP; Viscosity ([2]; 10 ° C.): 4241 cP
